Experimental data taken from patent US20150353495A1 (PORTOLA PHARMACEUTICALS, INC., priority 2010, published 2015).

What was measured:
Type in all cases: biochemical
JAK1 = target: T1, JAK1 (Homo sapiens, UniProt P23458); test: Z'-LYTE kinase assay JAK1
T1 construct: 5 μl of catalytic domain recombinant Kinase enzyme+Tyr peptide substrate (Invitrogen, CA); purchased Invitrogen
Protocol: (§1) JAK and TYK2 tyrosine phosphorylation activity is measured using the Z′-LYTE™ Technology developed by Invitrogen Corporation (Carlsbad, Calif.). For JAK1, JAK2 and JAK3 the Z′-LYTE™ Kinase Assay Kit-Tyr6 Peptide (part number PV4122) was used. For TYK2 the Z′-LYTE™ Kinase Assay Kit-Tyr6 Peptide (part number PV3192) was used. The Z′-LYTE™ biochemical assay employs a fluorescence resonance energy transfer (FRET) coupled-enzyme format and is based on the differential sensitivity of phosphorylated and non-phosphorylated peptides to proteolitic cleavage. The assay uses a synthetic peptide substrate that is labelled with a donor fluorophore (coumarin) and an acceptor fluorophore (fluorescein) that make up a FRET pair. In the primary reaction (the Kinase Reaction), the kinase transfers the γ-phosphate of ATP to a single tyrosine residue on the substrate, while the presence of a kinase inhibitor in the primary reaction suppresses phosphorylation. In the secondary reaction (the Development Reaction), a site-specific protease (the Development Reagent) is added. The development buffer quenches the Kinase Reaction, while the protease recognizes and cleaves non-phosphorylated Z′-LYTE™ peptide substrate. Cleavage disrupts FRET between the donor and acceptor fluorophores on the non-phosphoryleted substrate, while uncleaved, phosphorylated substrate maintains FRET.
(§2) To test the ability of candidate molecules to inhibit JAK tyrosine phosphorylation activity, molecules are reconstituted in 100% DMSO and serially diluted 1:10 in polypropylene v-bottom microtiter plates. The candidate molecules are then diluted 1:25 into kinase buffer and 2.5 μl transferred into duplicate wells of a 384 well low volume black microtiter assay plate (Corning, USA). The final DMSO concentration in the assay is 1%. The kinase reaction contains 2.5 μl of a candidate molecule, 5 μl of catalytic domain recombinant Kinase enzyme+Tyr peptide substrate (Invitrogen, CA) and 2.5 μl ATP (Invitrogen, CA). The kinase reaction is allowed to procede for 1 hour at room temperature. The protease reaction is initiated by the addition of 5 μl Development Reagent (Invitrogen, CA). After 1 hour incubation at room temperature the fluorescence is measured using a FlexStation plate reader (Molecular Devices, Sunnyvale, Calif.).

JAK3 = target: T2, JAK3 (Homo sapiens, UniProt P52333); test: Z'-LYTE kinase assay JAK3
T2 construct: 5 μl of catalytic domain recombinant Kinase enzyme+Tyr peptide substrate (Invitrogen, CA); purchased Invitrogen
T2 sequence (P52333 822-1111 limits assumed): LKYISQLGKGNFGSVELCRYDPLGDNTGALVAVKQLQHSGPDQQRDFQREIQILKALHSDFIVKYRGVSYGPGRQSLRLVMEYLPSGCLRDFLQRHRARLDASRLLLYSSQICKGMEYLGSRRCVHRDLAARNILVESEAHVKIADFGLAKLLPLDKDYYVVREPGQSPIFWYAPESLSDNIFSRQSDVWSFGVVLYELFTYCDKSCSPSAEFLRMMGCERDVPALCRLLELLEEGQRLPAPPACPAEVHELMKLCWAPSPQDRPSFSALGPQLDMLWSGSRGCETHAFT
Protocol: as §1, §2

JAK2 = target: T3, JAK2 (Homo sapiens, UniProt O60674); test: Z'-LYTE kinase assay JAK2
T3 construct: 5 μl of catalytic domain recombinant Kinase enzyme+Tyr peptide substrate (Invitrogen, CA); purchased Invitrogen
T3 sequence (O60674 849-1124 limits assumed): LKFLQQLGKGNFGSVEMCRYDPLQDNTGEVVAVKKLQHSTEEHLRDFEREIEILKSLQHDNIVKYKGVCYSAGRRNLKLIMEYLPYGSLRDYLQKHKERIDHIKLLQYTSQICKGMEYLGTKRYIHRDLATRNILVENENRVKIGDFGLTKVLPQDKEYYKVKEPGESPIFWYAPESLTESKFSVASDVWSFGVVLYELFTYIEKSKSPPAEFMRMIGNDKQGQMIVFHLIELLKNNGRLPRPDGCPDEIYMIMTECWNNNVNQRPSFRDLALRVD
Protocol: as §1, §2

T1 sequence (P23458 875-1153 limits assumed): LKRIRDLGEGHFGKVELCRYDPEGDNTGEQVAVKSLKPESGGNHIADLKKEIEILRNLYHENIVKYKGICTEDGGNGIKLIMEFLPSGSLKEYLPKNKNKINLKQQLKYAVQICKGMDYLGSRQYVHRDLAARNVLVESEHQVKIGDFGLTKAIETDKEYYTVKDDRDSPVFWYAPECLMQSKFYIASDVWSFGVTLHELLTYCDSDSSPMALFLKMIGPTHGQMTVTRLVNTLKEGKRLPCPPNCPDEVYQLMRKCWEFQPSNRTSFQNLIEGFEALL

NC(=O)c1cnc(Nc2ccc(-c3c[nH]cn3)cc2)cc1NCc1ccccc1 [Example 276, 6-(4-(1H-imidazol-4-yl)phenylamino)-4-(benzylamino)nicotinamide] gave an IC50 (JAK1) of 100 to 1000 nM, an IC50 (JAK3) of 10 to 100 nM and an IC50 (JAK2) of 100 to 1000 nM.

COC[C@@H](Nc1cc(Nc2ccc(C(=O)N3CCC3)cc2)ncc1C(N)=O)c1ccccc1 [Example 264, (S)-6-(4-(azetidine-1-carbonyl)phenylamino)-4-(2-methoxy-1-phenylethylamino)nicotinamide] gave an IC50 (JAK1) of 100 to 1000 nM, an IC50 (JAK3) of 10 to 100 nM and an IC50 (JAK2) of 100 to 1000 nM.

Compound COc1ccc(Nc2cc(NCc3ccccc3)c(C(N)=O)cn2)cc1C [Example 279, 4-(benzylamino)-6-(4-methoxy-3-methylphenylamino)nicotinamide] has an IC50 (JAK1) of over 1000 nM, an IC50 (JAK3) of 10 to 100 nM and an IC50 (JAK2) of over 1000 nM.

CCC(=O)N1CCC(c2ccc(Nc3cc(NC4CCOCC4)c(C(N)=O)cn3)cc2)CC1 [Example 146, 6-(4-(1-propionylpiperidin-4-yl)phenylamino)-4-(tetrahydro-2H-pyran-4-ylamino)nicotinamide] was tested, and the IC50 (JAK1) was over 1000 nM, the IC50 (JAK3) was 100 to 1000 nM and the IC50 (JAK2) was 100 to 1000 nM.

CC(=O)N(C)c1ccc(Nc2cc(NCc3cncc(F)c3)c(C(N)=O)cn2)cc1 [Example 483, 4-((5-fluoropyridin-3-yl)methylamino)-6-(4-(N-methylacetamido)phenylamino)nicotinamide] was tested, and the IC50 (JAK1) was over 1000 nM, the IC50 (JAK3) was 10 to 100 nM and the IC50 (JAK2) was 100 to 1000 nM.

CS(=O)(=O)Cc1ccc(Nc2cc(NCc3cccc4[nH]ccc34)c(C(N)=O)cn2)cc1 [Example 348, 4-((1H-indol-4-yl)methylamino)-6-(4-(methylsulfonylmethyl)phenylamino)nicotinamide] gave an IC50 (JAK1) of 1 to 10 nM, an IC50 (JAK3) of under 1 nM and an IC50 (JAK2) of 1 to 10 nM.

For CC(=O)N1CCN(c2ccc(Nc3cc(NCc4ccc(F)cc4F)c(C(N)=O)cn3)cc2)CC1 [Example 259, 6-(4-(4-acetylpiperazin-1-yl)phenylamino)-4-(2,4-difluorobenzylamino)nicotinamide], the IC50 (JAK1) was over 1000 nM, the IC50 (JAK3) was 10 to 100 nM and the IC50 (JAK2) was 100 to 1000 nM.

NC(=O)c1cnc(Nc2ccc(C3CCOCC3)cc2)cc1NCC1(O)CCCC1 [Example 141, 4-((1-hydroxycyclopentyl)methylamino)-6-(4-(tetrahydro-2H-pyran-4-yl)phenylamino)nicotinamide] was tested, and the IC50 (JAK1) was over 1000 nM, the IC50 (JAK3) was 10 to 100 nM and the IC50 (JAK2) was 100 to 1000 nM.

Work on CC(C)CNc1cc(Nc2ccc(C3CCOCC3)cc2)ncc1C(N)=O [Example 156, 4-(isobutylamino)-6-(4-(tetrahydro-2H-pyran-4-yl)phenylamino)nicotinamide] yielded an IC50 (JAK1) of 100 to 1000 nM, an IC50 (JAK3) of 100 to 1000 nM and an IC50 (JAK2) of 100 to 1000 nM.

NC(=O)c1cnc(Nc2ccc(C3CN(C(=O)N4CCCC4)C3)cc2)cc1NCc1ccccc1 [Example 338, 4-(benzylamino)-6-(4-(1-(pyrrolidine-1-carbonyl)azetidin-3-yl)phenylamino)nicotinamide] gave an IC50 (JAK1) of 100 to 1000 nM, an IC50 (JAK3) of 1 to 10 nM and an IC50 (JAK2) of 100 to 1000 nM.

For NC(=O)c1cnc(Nc2ccc(C3CCOCC3)cc2)cc1NC1CCOCC1 [Example 139, 6-(4-(tetrahydro-2H-pyran-4-yl)phenylamino)-4-(tetrahydro-2H-pyran-4-ylamino)nicotinamide], the IC50 (JAK1) was over 1000 nM, the IC50 (JAK3) was 100 to 1000 nM and the IC50 (JAK2) was over 1000 nM.

For CS(=O)(=O)N1CCC(CNc2cc(Nc3ccc(C4CCOCC4)cc3)ncc2C(N)=O)CC1 [Example 159, 4-((1-(methylsulfonyl)piperidin-4-yl)methylamino)-6-(4-(tetrahydro-2H-pyran-4-yl)phenylamino)nicotinamide], the IC50 (JAK1) was over 1000 nM, the IC50 (JAK3) was 100 to 1000 nM and the IC50 (JAK2) was over 1000 nM.

NC(=O)c1cnc(Nc2ccc(C3CCN(CCF)CC3)cc2)cc1NCc1cccc(F)c1F [Example 217, 4-(2,3-difluorobenzylamino)-6-(4-(1-(2-fluoroethyl)piperidin-4-yl)phenylamino)nicotinamide] showed an IC50 (JAK1) of 100 to 1000 nM, an IC50 (JAK3) of 1 to 10 nM and an IC50 (JAK2) of 10 to 100 nM.

Compound Cc1cc(Nc2cc(NCc3cccc4[nH]ccc34)c(C(N)=O)cn2)ccc1C(=O)N(C)C [Example 295, 4-((1H-indol-4-yl)methylamino)-6-(4-(dimethylcarbamoyl)-3-methylphenylamino)nicotinamide] has an IC50 (JAK1) of 1 to 10 nM, an IC50 (JAK3) of under 1 nM and an IC50 (JAK2) of 1 to 10 nM.

Work on Cn1ccnc1CNc1cc(Nc2ccc(C3CCOCC3)cc2)ncc1C(N)=O [Example 183, 4-((1-methyl-1H-imidazol-2-yl)methylamino)-6-(4-(tetrahydro-2H-pyran-4-yl)phenylamino)nicotinamide] yielded an IC50 (JAK1) of 100 to 1000 nM, an IC50 (JAK3) of 10 to 100 nM and an IC50 (JAK2) of 100 to 1000 nM.

NC(=O)c1cnc(Nc2ccc(OCCN3CCCC3)cc2)cc1NC1(c2ccccc2)CC1 [Example 132, 4-(1-phenylcyclopropylamino)-6-(4-(2-(pyrrolidin-1-yl)ethoxy)phenylamino)nicotinamide] gave an IC50 (JAK1) of over 1000 nM, an IC50 (JAK3) of 10 to 100 nM and an IC50 (JAK2) of 100 to 1000 nM.

CN(C(=O)C1CC1)c1ccc(Nc2cc(NCc3cccc(F)n3)c(C(N)=O)cn2)cc1 [Example 489, 4-((6-fluoropyridin-2-yl)methylamino)-6-(4-(N-methylcyclopropanecarboxamido)phenylamino)nicotinamide] showed an IC50 (JAK1) of 100 to 1000 nM, an IC50 (JAK3) of 10 to 100 nM and an IC50 (JAK2) of 100 to 1000 nM.

Work on CC(=O)N1CCC[C@H](CNc2cc(Nc3ccc(C(=O)N(C)C)c(Cl)c3)ncc2C(N)=O)C1 [Example 442, (R)-4-((1-acetylpiperidin-3-yl)methylamino)-6-(3-chloro-4-(dimethylcarbamoyl)phenylamino)nicotinamide] yielded an IC50 (JAK1) of over 1000 nM, an IC50 (JAK3) of 10 to 100 nM and an IC50 (JAK2) of 100 to 1000 nM.

CC(=O)N1CC(c2ccc(Nc3cc(NCc4cncc(F)c4)c(C(N)=O)cn3)cc2)C1 [Example 334, 6-(4-(1-acetylazetidin-3-yl)phenylamino)-4-((5-fluoropyridin-3-yl)methylamino)nicotinamide] was tested, and the IC50 (JAK1) was 100 to 1000 nM, the IC50 (JAK3) was 10 to 100 nM and the IC50 (JAK2) was 100 to 1000 nM.

COc1ccc(Nc2cc(NCc3cncnc3)c(C(N)=O)cn2)cc1 [Example 286, 6-(4-methoxyphenylamino)-4-(pyrimidin-5-ylmethylamino)nicotinamide] gave an IC50 (JAK1) of over 1000 nM, an IC50 (JAK3) of 100 to 1000 nM and an IC50 (JAK2) of over 1000 nM.

Compound CN(C)C(=O)c1ccc(Nc2cc(NCc3cccc(-n4cccn4)c3)c(C(N)=O)cn2)cc1 [Example 422, 4-(3-(1H-pyrazol-1-yl)benzylamino)-6-(4-(dimethylcarbamoyl)phenylamino)nicotinamide] has an IC50 (JAK1) of over 1000 nM, an IC50 (JAK3) of 10 to 100 nM and an IC50 (JAK2) of 100 to 1000 nM.

Work on COC(=O)N(C)c1ccc(Nc2cc(NCc3cccc4cc[nH]c34)c(C(N)=O)cn2)cc1 [Example 482, methyl 4-(4-((1H-indol-7-yl)methylamino)-5-carbamoylpyridin-2-ylamino)phenyl(methyl)carbamate] yielded an IC50 (JAK1) of over 1000 nM, an IC50 (JAK3) of 10 to 100 nM and an IC50 (JAK2) of over 1000 nM.

NC(=O)c1cnc(Nc2ccc(C(=O)N3CCOCC3)cc2)cc1NCC1CCCC1 [Example 42, 4-(cyclopentylmethylamino)-6-(4-(morpholine-4-carbonyl)phenylamino)nicotinamide] showed an IC50 (JAK1) of 100 to 1000 nM, an IC50 (JAK3) of 10 to 100 nM and an IC50 (JAK2) of 100 to 1000 nM.

With NC(=O)c1cnc(Nc2ccc(C3CCNCC3)cc2)cc1NCc1cc(F)ccc1F [Example 214, 4-(2,5-difluorobenzylamino)-6-(4-(piperidin-4-yl)phenylamino)nicotinamide] the IC50 (JAK1) was 10 to 100 nM, the IC50 (JAK3) was 1 to 10 nM and the IC50 (JAK2) was 10 to 100 nM.

COc1ccc(Nc2cc(NC[C@H]3CCCN(S(=O)(=O)C4CC4)C3)c(C(N)=O)cn2)cc1 [Example 292, (R)-4-((1-(cyclopropylsulfonyl)piperidin-3-yl)methylamino)-6-(4-methoxyphenylamino)nicotinamide] was tested, and the IC50 (JAK1) was over 1000 nM, the IC50 (JAK3) was 100 to 1000 nM and the IC50 (JAK2) was over 1000 nM.

COC(=O)N(C)c1ccc(Nc2cc(NCc3cccc4ccsc34)c(C(N)=O)cn2)cc1 [Example 465, methyl 4-(4-(benzo[b]thiophen-7-ylmethylamino)-5-carbamoylpyridin-2-ylamino)phenyl(methyl)carbamate] gave an IC50 (JAK1) of over 1000 nM, an IC50 (JAK3) of 1 to 10 nM and an IC50 (JAK2) of 100 to 1000 nM.

NC(=O)c1cnc(Nc2ccc(OC(F)F)cc2)cc1NCc1cncc(F)c1 [Example 309, 6-(4-(difluoromethoxy)phenylamino)-4-((5-fluoropyridin-3-yl)methylamino)nicotinamide] showed an IC50 (JAK1) of over 1000 nM, an IC50 (JAK3) of 10 to 100 nM and an IC50 (JAK2) of 100 to 1000 nM.

N#CCOc1cccc(Nc2cc(NCc3ccccc3)c(C(N)=O)cn2)c1 [Example 383] was tested, and the IC50 (JAK1) was 100 to 1000 nM, the IC50 (JAK3) was 10 to 100 nM and the IC50 (JAK2) was 100 to 1000 nM.
